Results taken from patent US12492186B2, “Bicyclic heterocyclic compounds useful as IRAK4 inhibitors” (BRISTOL-MYERS SQUIBB COMPANY, priority 2019, dated 2025).
pEC50, pIC50: −log10 of the molar value.

Tests used:
IRAK4 = IRAK4 (Homo sapiens (Human), UniProt Q9NWZ3); experiment: IRAK4 Inhibition Assay; format: biochemical; conditions: ATP 500 μM; IRAK4 0.6 nM; 60 min room temperature; Caliper LABCHIP 3000
Human whole blood = experiment: IRAK4 Whole Blood Assay (IL-6 levels after stimulation with TLR2 agonist lipoteichoic acid); format: cell-based; conditions: 10 μg/mL lipoteichoic acid, 5 hours
Procedure: Human whole blood containing the anti-coagulant ACD-A was plated in 384-well plate (25 μL/well) and incubated with compounds for 60 minutes at 37° C. in a 5% CO2 incubator. The blood was stimulated with a TLR2 agonist, 10 μg/mL final concentration of lipoteichoic acid (Invivogen, San Diego, CA) in 25 μL RPMI (Gibco) for 5 hours in a 5% CO2 incubator. At the end of the incubation, plates were centrifuged at 2300 rpm for 5 minutes. Supernatants were harvested and analyzed for IL-6 levels by Flow Cytometry beads assay (BD Biosciences, San Jose, CA).

Chain of IRAK4 (Q9NWZ3 whole entry, species assumed): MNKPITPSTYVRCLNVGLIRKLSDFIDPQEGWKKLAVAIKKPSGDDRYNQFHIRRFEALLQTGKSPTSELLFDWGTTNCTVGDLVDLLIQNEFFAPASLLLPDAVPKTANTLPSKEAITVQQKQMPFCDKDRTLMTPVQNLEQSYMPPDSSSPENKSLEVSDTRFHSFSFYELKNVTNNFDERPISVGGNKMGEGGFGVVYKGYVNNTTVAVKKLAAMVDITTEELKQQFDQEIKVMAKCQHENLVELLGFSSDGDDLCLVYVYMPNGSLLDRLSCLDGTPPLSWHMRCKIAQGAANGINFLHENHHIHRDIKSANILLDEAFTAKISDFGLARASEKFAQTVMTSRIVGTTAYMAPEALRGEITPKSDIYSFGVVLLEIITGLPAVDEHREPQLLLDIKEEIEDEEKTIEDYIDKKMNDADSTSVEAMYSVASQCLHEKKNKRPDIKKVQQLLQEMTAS

SMILES	pIC50 (IRAK4)	pEC50 (Human whole blood)
CC(C)CCn1cc(-c2cnc3ccc(-c4cn[nH]c4)cc3c2NC(C)C)nn1 [Example 129, 3-(1-isopentyl-1H-1,2,3-triazol-4-yl)-N-isopropyl-6-(1H-pyrazol-4-yl)quinolin-4-amine]	8.92	5.85
CC(C)Nc1c(C(=O)N[C@H]2CC[C@H](O)CC2)cnc2ccc(-c3cn[nH]c3)cc12 [Example 11, N-((1r,4r)-4-hydroxycyclohexyl)-4-(isopropylamino)-6-(1H-pyrazol-4-yl)quinoline-3-carboxamide]	8.02	5.78
CC(C)Nc1c(C(=O)NCCC(F)(F)F)cnc2ccc(-c3cn[nH]c3)cc12 [Example 43, 4-(isopropylamino)-6-(1H-pyrazol-4-yl)-N-(3,3,3-trifluoropropyl)quinoline-3-carboxamide]	7.84	6.26
O=C(NCCC1CCS(=O)(=O)CC1)c1cnc2ccc(-c3cn[nH]c3)cc2c1NC1CC1 [Example 120, 4-(cyclopropylamino)-N-(2-(1,1-dioxidotetrahydro-2H-thiopyran-4-yl)ethyl)-6-(1H-pyrazol-4-yl)quinoline-3-carboxamide]	8.06	5.22
CC(C)Nc1c(C(=O)NCCC2CCNC2)cnc2ccc(-c3cn[nH]c3)cc12 (centres unmarked) [Example 97, 4-(isopropylamino)-6-(1H-pyrazol-4-yl)-N-(2-(pyrrolidin-3-yl)ethyl)quinoline-3-carboxamide]	8.01	5.68
CC(C)Nc1c(C(=O)N[C@H]2C[C@H](O)C2)cnc2ccc(-c3cn[nH]c3)nc12 [Example 143, N-((1r,3r)-3-hydroxycyclobutyl)-4-(isopropylamino)-6-(1H-pyrazol-4-yl)-1,5-naphthyridine-3-carboxamide]	8.14	5.86
COC(=O)N[C@H]1CC[C@H](NC(=O)c2cnc3ccc(-c4cn[nH]c4)cc3c2NC(C)C)CC1 [Example 25, methyl ((1r,4r)-4-(4-(isopropylamino)-6-(1H-pyrazol-4-yl)quinoline-3-carboxamido)cyclohexyl)carbamate]	8.48	5.89
CC1(Nc2c(C(=O)NCC3CCS(=O)(=O)C3)cnc3ccc(-c4cn[nH]c4)cc23)CC1 (centres unmarked) [Example 123, N-((1,1-dioxidotetrahydrothiophen-3-yl)methyl)-4-((1-methylcyclopropyl)amino)-6-(1H-pyrazol-4-yl)quinoline-3-carboxamide]	8.39	6.22
CC(C)Nc1c(C(=O)NCCC2CCS(=O)(=O)CC2)cnc2ccc(-c3cn[nH]c3)cc12 [Example 112, N-(2-(1,1-dioxidotetrahydro-2H-thiopyran-4-yl)ethyl)-4-(isopropylamino)-6-(1H-pyrazol-4-yl) quinoline-3-carboxamide]	8.37	5.56
CC(C)Nc1c(C(=O)NCCS(C)(=O)=O)cnc2ccc(-c3cn[nH]c3)cc12 [Example 88, 4-(isopropylamino)-N-(2-(methylsulfonyl)ethyl)-6-(1H-pyrazol-4-yl)quinoline-3-carboxamide]	7.73	5.82
CC(C)Nc1c(C(=O)NCCC(C)(C)N)cnc2ccc(-c3cn[nH]c3)nc12 [Example 150, N-(3-amino-3-methylbutyl)-4-(isopropylamino)-6-(1H-pyrazol-4-yl)-1,5-naphthyridine-3-carboxamide]	8.27	6.82
CC(C)Nc1c(C(=O)NCCc2cccnc2)cnc2ccc(-c3cn[nH]c3)cc12 [Example 98, 4-(isopropylamino)-6-(1H-pyrazol-4-yl)-N-(2-(pyridin-3-yl)ethyl)quinoline-3-carboxamide]	8.38	6.22
CC(C)Nc1c(C(=O)NCc2cnco2)cnc2ccc(-c3cn[nH]c3)cc12 [Example 14, 4-(isopropylamino)-N-(oxazol-5-ylmethyl)-6-(1H-pyrazol-4-yl)quinoline-3-carboxamide]	7.85	6.06
